Assay results taken from patent publication US11760773B2, “Small molecule drug conjugates of gemcitabine monophosphate” (MaveriX Oncology, Inc., priority 2018, dated 2023).
Like-named read-outs stand apart in the source and are kept apart here.

Legend:
Human plasma stability = assay type: in vitro ADME
Experimental: Method: Assay was carried out in 96-well microtiter plates. Compounds were incubated in replicates (n=2) for 0, 5, 15, 30, and 45 minutes at 37° C. Reaction mixtures (20 μL) contained a final concentration of 3 μM test compound in human plasma. Eucatropine included as positive control to verify assay performance. Linear regression of semi-log plot of % remaining of compounds versus time used to determine the half-life t½ values.

[1] = Liver microsomal stability, mouse; assay type: in vitro ADME; conditions: mouse liver microsomes
[2] = Monkey liver S9 stability; assay type: in vitro ADME; conditions: for microsomal CLint: monkey
[3] = Metabolic stability in liver hepatocytes, across species; assay type: in vitro ADME; conditions: mouse, dog, monkey, rat highest, human lowest, read-out: intrinsic clearance values Cint
Human liver S9 stability = assay type: in vitro ADME; conditions: for microsomal CLint: human
[4] = Int 1-4 normal tissue and plasma PK in CD-1 mice (study d); assay type: in vivo; conditions: male CD-1 mice, iv Int 1-4, FIG. 5
Experimental: Objectives: to compare the normal tissue pharmacokinetics, distribution, and stability of Int 1-4 in excretory organs following a single intravenous infusion administration of Int 1-4 at 20 mg/kg in male CD-1 mice.
PK measurements: compare PK parameters C0, CL, Vdss, Cmax, tmax, t1/2, AUC(0-t), AUC(0-inf), MRT(0-t), MRT(0-inf) for Int 1-4

[5] = CD-1 mouse plasma stability; assay type: in vitro ADME
Experimental: Method: Assay was carried out in 96-well microtiter plates. Compounds were incubated in replicates (n=2) for 0, 5, 15, 30, and 45 minutes at 37° C. Reaction mixtures (20 μL) contained a final concentration of 3 μM test compound in fresh CD-1 mouse plasma. Eucatropine included as positive control to verify assay performance. Linear regression of semi-log plot of % remaining of compounds versus time used to determine the half-life t1/2 values.

COc1cc(OC)c2oc(COC(=O)Nc3ccn([C@@H]4O[C@H](CO)[C@@H](O)C4(F)F)c(=O)n3)cc2c1 [Int 1-4, (5,7-di(methoxy)benzofuran-2-yl)methyl (1-((2R,4R,5R)-3,3-difluoro-4-hydroxy-5-(hydroxymethyl)tetrahydrofuran-2-yl)-2-oxo-1,2-dihydropyrimidin-4-yl)carbamate]
Slope Mean ± SE (Human plasma stability; 3 μM, 37° C., semi-log plot of % remaining versus time, in min-1 (unit assumed)): 0.001033 ± 0.001249 | stability in human plasma (Human plasma stability; repeat measurements): stable | half-life [1]: 1.35 h | microsomal CLint [1]: 17.1 µL/min/mg | Compound Remaining (% of 0 min) 0 min ([1]; 0 min): 100 % of 0 min | Compound Remaining (% of 0 min) 5 min ([1]; 5 min): 102 % of 0 min | Compound Remaining (% of 0 min) 15 min ([1]; 15 min): 78.4 % of 0 min | Compound Remaining (% of 0 min) 30 min ([1]; 30 min): 73.6 % of 0 min | Compound Remaining (% of 0 min) 45 min ([1]; 45 min): 70.7 % of 0 min | Compound Remaining (% of 0 min) control ([1]; control): 93.2 % of 0 min | Slope Mean ± SE ([2]; monkey liver S9): −0.03881 ± 0.002089 | half-life ([2]; monkey liver S9, read-out: t1/2 Mean ± SE): 0.298 ± 0.0167 h | microsomal CLint ([2]; liver S9, monkey liver S9, summary, read-out: S9 intrinsic clearance Clint): < 2.5 µL/min/mg | microsomal CLint ([2]; liver S9, monkey liver S9, read-out: CLint Mean ± SE): 15.5 ± 0.836 µL/min/mg | microsomal CLint ([2]; liver S9, monkey liver S9 experiment, read-out: intrinsic clearance value): 15.5 µL/min/mg | microsomal CLint [3]: 3 to 8 µL/min/mg | Slope Mean ± SE (Human liver S9 stability; human liver S9): −0.005545 ± 0.000717 | half-life (Human liver S9 stability; human liver S9, read-out: t1/2 Mean ± SE): 2.08 ± 0.27 h | microsomal CLint (Human liver S9 stability; liver S9, human liver S9, summary, read-out: S9 intrinsic clearance Clint): < 2.5 µL/min/mg | microsomal CLint (Human liver S9 stability; liver S9, human liver S9, text value, read-out: intrinsic clearance value): 2.22 µL/min/mg | microsomal CLint (Human liver S9 stability; liver S9, human liver S9, read-out: CLint Mean ± SE): 2.22 ± 0.287 µL/min/mg | stability in plasma and major excretory organs (liver, kidney) [4]: stable | Slope Mean ± SE ([5]; 3 μM, 37° C., in min-1 (unit assumed)): −0.000906 ± 0.000706 | half-life at 3 μM ([5]; fresh CD-1 mouse plasma, 3 μM, 37° C., read-out: t1/2 Mean ± SE): 12.8 ± 9.94 h | half-life at 3 μM ([5]; read-out: t1/2 (converted)): ~13 h
